These results are taken from patent publication US12384969B2, “Enhancement of soil characteristics with lactobionate compounds” (Leprino Foods Company, priority 2017, dated 2025).

The structures appear in SMILES notation.

One data set deals with soil microbial biomass. Kind of data set: Soil microbial biomass carbon (MBC), chloroform-fumigation extraction, two-month laboratory soil incubation.
The nature of data set [1]: Water absorbed after exposure to 100% relative humidity for 4 hours (FIG. 6). The class given is physicochemical. The conditions noted are these: nine substances plus control. An excerpt:
When one of the hydroxyl groups occurs in the alpha position, the PHA is a polyhydroxy alpha-hydroxy acid (AHA); when an additional sugar is attached to the PHA structure the molecule is a bionic acid. […] The multiple hydroxyl groups in PHAs attract and hydrogen bond surrounding water molecules, which increase the humectant properties of the compounds.

The mark [2] stands for this setting: Akron, CO (Ak) soil, HC, 1 month.
Setting [3] is: Akron, CO (Ak) soil, LC, 1 month.
The mark [4] stands for this setting: Fresno, CA (Fr) soil, HC, 1 month.
The mark [5] stands for this setting: Fresno, CA (Fr) soil, HC, 2 wks.
Setting [6] is: Fresno, CA (Fr) soil, LC, 1 month.
Setting [7] is: Fresno, CA (Fr) soil, LC, 2 wks.

Take `O=C([O-])[C@H](O)[C@@H](O)[C@H](O[C@@H]1O[C@H](CO)[C@H](O)[C@H](O)[C@H]1O)[C@H](O)CO.O=C([O-])[C@H](O)[C@@H](O)[C@H](O[C@@H]1O[C@H](CO)[C@H](O)[C@H](O)[C@H]1O)[C@H](O)CO.[Ca+2]` [Ca-LB, calcium lactobionate]: the MBC with soil microbial biomass (setting [2]) is given as 6395.35^CDE mg C kg -soil; against soil microbial biomass (Akron, CO (Ak) soil, HC, 2 wks), 9197.28^ABC mg C kg -soil; against soil microbial biomass (setting [3]), 9816.22^C mg C kg -soil; with soil microbial biomass (Akron, CO (Ak) soil, LC, 2 wks) it was 13087.10^A mg C kg -soil; against soil microbial biomass (setting [4]) it was 11289.89^BC mg C kg -soil; with soil microbial biomass (setting [5]), 10362.94^A mg C kg -soil. For the same compound, the values for the MBC against soil microbial biomass (setting [6]) and with soil microbial biomass (setting [7]) were 7560.73^CD mg C kg -soil and 10133.11^A mg C kg -soil, respectively.
Turning to `O=C([O-])[C@H](O)[C@@H](O)[C@H](O[C@@H]1O[C@H](CO)[C@H](O)[C@H](O)[C@H]1O)[C@H](O)CO.[K+]` [K-LB, potassium lactobionate], the MBC is 7790.40^CD mg C kg -soil with soil microbial biomass (setting [2]); 8349.51^AC mg C kg -soil in the data set on soil microbial biomass (Akron, CO (Ak) soil, HC, 2 wks); 10597.30^BC mg C kg -soil with soil microbial biomass (setting [3]); 11189.75^A mg C kg -soil in the data set with soil microbial biomass (Akron, CO (Ak) soil, LC, 2 wks); 16689.85^AB mg C kg -soil against soil microbial biomass (setting [4]); 1369.60^A mg C kg -soil with soil microbial biomass (setting [5]). For the same compound, the MBC with soil microbial biomass (setting [6]) is recorded as 7277.63^CD mg C kg -soil; in the data set with soil microbial biomass (setting [7]), 12167.76^A mg C kg -soil.
Turning to `O=C(O)[C@H](O)[C@@H](O)[C@H](O[C@@H]1O[C@H](CO)[C@H](O)[C@H](O)[C@H]1O)[C@H](O)CO` [LBA, lactobionic acid], in data set [1], the “Weight of water absorbed per mole of substance” value was “highest”.
With `N.O=C(O)[C@H](O)[C@@H](O)[C@H](O[C@@H]1O[C@H](CO)[C@H](O)[C@H](O)[C@H]1O)[C@H](O)CO` [NH4-LB, ammonium lactobionate], the MBC against soil microbial biomass (setting [2]) is reported as 869.62^EF mg C kg -soil; in the data set on soil microbial biomass (Akron, CO (Ak) soil, HC, 2 wks) it was 11037.60^A mg C kg -soil; in the data set with soil microbial biomass (setting [3]), 3225.38^DEF mg C kg -soil; against soil microbial biomass (Akron, CO (Ak) soil, LC, 2 wks), 9911.52^A mg C kg -soil; against soil microbial biomass (setting [4]), 18504.80^A mg C kg -soil; against soil microbial biomass (setting [5]), 13627.26^A mg C kg -soil. For the same compound, the figures for the MBC against soil microbial biomass (setting [6]) and with soil microbial biomass (setting [7]) were 739.12^EF mg C kg -soil and 8610.50^AC mg C kg -soil, respectively. Moreover, the “Total MBC compared between LB amendments” value with soil microbial biomass (at 1 month) was “lower”.
